This is an account of results in patent publication US20070219186A1, “Pyrazolo[1,5-A]pyrimidine derivatives and methods of use thereof” (priority 2006, published 2007).

Where two headings read alike, the source gives them in different places.

The target in this experiment is T1, human B-Raf (Homo sapiens, UniProt P15056).
T1 construct: Flag; GST; made in house; host or cells: Sf9 insect cells (B-Raf); E. coli (MEK1-GST)
Kind of experiment: B-Raf Kinase to MEK1 ELISA. The experiment is classed as biochemical. As to conditions: for inhibition at 10 µM: read-out: % Inhib./10 uM. Put shortly: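 Read-out is a DELFIA europium signal from phospho-MEK1 (Ser217/221) antibody after capture of GST-MEK1 (50 nM final) on anti-GST plates. Phosphorylation comes from Sf9-expressed Flag/GST human B-Raf (~20 ng) with ATP/MgCl2, 60 min RT, pH 7.2 MOPS.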

Where [1] appears, read: median, cpd concentrations from 10 μM to 30 nM in half log dilutions, read-out: Median IC50.

T1 sequence (P15056 whole entry): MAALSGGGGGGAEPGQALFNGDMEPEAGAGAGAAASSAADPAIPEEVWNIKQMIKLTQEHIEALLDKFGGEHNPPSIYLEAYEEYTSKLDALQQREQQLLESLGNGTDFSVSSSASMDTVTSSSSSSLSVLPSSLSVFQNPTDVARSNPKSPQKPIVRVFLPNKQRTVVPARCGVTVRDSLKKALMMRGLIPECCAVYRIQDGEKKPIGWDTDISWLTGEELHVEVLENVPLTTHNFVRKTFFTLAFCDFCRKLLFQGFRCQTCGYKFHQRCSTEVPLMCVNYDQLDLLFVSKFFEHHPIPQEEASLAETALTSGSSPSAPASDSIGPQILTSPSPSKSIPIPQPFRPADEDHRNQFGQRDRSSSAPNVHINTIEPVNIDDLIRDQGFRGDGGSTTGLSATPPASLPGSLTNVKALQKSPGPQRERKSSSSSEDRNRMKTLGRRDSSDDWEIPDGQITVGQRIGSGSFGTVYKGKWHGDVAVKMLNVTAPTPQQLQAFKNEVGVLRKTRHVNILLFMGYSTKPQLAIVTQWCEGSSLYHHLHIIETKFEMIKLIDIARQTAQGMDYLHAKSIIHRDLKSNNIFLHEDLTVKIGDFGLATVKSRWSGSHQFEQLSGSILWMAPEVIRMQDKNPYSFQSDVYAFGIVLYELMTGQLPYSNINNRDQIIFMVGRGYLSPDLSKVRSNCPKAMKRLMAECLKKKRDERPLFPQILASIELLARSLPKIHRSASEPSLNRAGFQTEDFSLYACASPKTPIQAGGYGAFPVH

By IC50 is commonly meant the point on the concentration scale where inhibition reaches its midpoint. As for `O=C(Nc1cccc(-c2ccnc3cc(-c4ccncc4)nn23)c1)c1ccccc1Cl` [Example 145, 2-chloro-N-[3-(2-pyridin-4-ylpyrazolo[1,5-a]pyrimidin-7-yl)phenyl]benzamide], the inhibition at 10 µM turned out to be 24%. Besides, under setting [1], the IC50 is greater than 10000 nM.
For `O=C(Nc1cccc(-c2ccnc3cc(-c4ccnc(NCCCN5CCOCC5)c4)nn23)c1)c1cccc(C(F)(F)F)c1` [Example 258, N-[3-(2-{2-[(3-morpholin-4-ylpropyl)amino]pyridin-4-yl}pyrazolo[1,5-a]pyrimidin-7-yl)phenyl]-3-(trifluoromethyl)benzamide], the IC50 worked out at 134 nM. In addition, where the note is “single point assay, 10 uM”, the “% Inhib./10 uM” value worked out at 95%.
Regarding `CCOC(=O)c1cnn2c(-c3cccc(NC(=O)c4cccc(Cl)c4)c3)ccnc12` [Example 70, Ethyl 7-{3-[(3-chlorobenzoyl)amino]phenyl}pyrazolo[1,5-a]pyrimidine-3-carboxylate], the inhibition at 10 µM was determined as 0%. For the same compound, under setting [1], the IC50 is greater than 10000 nM.
The matching figures for `CCOC(=O)c1cnn2c(-c3cccc(NC(=O)Nc4ccc(SC)cc4)c3)ccnc12` [Example 18, ethyl 7-{3-[({[4-(methylthio)phenyl]amino}carbonyl)amino]phenyl}pyrazolo[1,5-a]pyrimidine-3-carboxylate]: 0% and greater than 10000 nM.
As for `CC(=O)c1ccc(-c2cnn3c(-c4cccc(NC(=O)c5cccc(C(F)(F)F)c5)c4)ccnc23)cc1` [Example 300, N-{3-[3-(4-acetylphenyl)pyrazolo[1,5-a]pyrimidin-7-yl]phenyl}-3-(trifluoromethyl)benzamide], the IC50 was 4490 nM and the inhibition at 10 µM stood at 71%.
Turning to `CCOC(=O)c1cnn2c(-c3cccc(NC(=O)Nc4cc(C(F)(F)F)ccc4Cl)c3)ccnc12` [Example 37, ethyl 7-{3-[({[2-chloro-5-(trifluoromethyl)phenyl]amino}carbonyl)amino]phenyl}pyrazolo[1,5-a]pyrimidine-3-carboxylate], the inhibition at 10 µM is 76%. Also, the IC50 under setting [1] is 6820 nM.
For `O=C(Nc1cccc(-c2ccnc3c(-c4cccnc4)cnn23)c1)c1ccc(F)c(C(F)(F)F)c1` [Example 171, 4-fluoro-N-[3-(3-pyridin-3-ylpyrazolo[1,5-a]pyrimidin-7-yl)phenyl]-3-(trifluoromethyl)benzamide], the inhibition at 10 µM was found to be 87%. The IC50 under setting [1] amounted to 380 nM.
The matching figures for `O=C(Nc1cccc(-c2ccnc3cc(N4CCOCC4)nn23)c1)c1ccc(Cl)c(Cl)c1` [Example 198, 3,4-dichloro-N-[3-(2-morpholin-4-ylpyrazolo[1,5-a]pyrimidin-7-yl)phenyl]benzamide]: 56% and 1900 nM.
Consider `CCOC(=O)c1cnn2c(-c3cccc(NC(=O)c4cc(C(C)(C)C)cc(C(C)(C)C)c4)c3)ccnc12` [Example 227, ethyl7-{3-[(3,5-di-tert-butylbenzoyl)amino]phenyl}pyrazolo[1,5-a]pyrimidine-3-carboxylate], for which the inhibition at 10 µM is 54%. Moreover, the IC50 under setting [1] amounted to 1600 nM.
Consider `O=C1CCN(c2cc3nccc(-c4cccc(NC(=O)c5cccc(C(F)(F)F)c5)c4)n3n2)CC1` [Example 251, N-{3-[2-(4-oxopiperidin-1-yl)pyrazolo[1,5-a]pyrimidin-7-yl]phenyl}-3-(trifluoromethyl)benzamide], for which the inhibition at 10 µM was determined as 42%.
In the case of `O=C(Nc1cccc(-c2ccnc3cc(-c4ccnc(NCCN5CCNC5=O)c4)nn23)c1)c1cccc(C(F)(F)F)c1` [Example 268, N-{3-[2-(2-{[2-(2-oxoimidazolidin-1-yl)ethyl]amino}pyridin-4-yl)pyrazolo[1,5-a]pyrimidin-7-yl]phenyl}-3-(trifluoromethyl)benzamide], the inhibition at 10 µM stood at 96%. Also, the IC50 under setting [1] stood at 110 nM.
For `CCOC(=O)c1c(C)nn2c(-c3cccc(NC(=O)c4cccc(C(F)(F)F)c4)c3)ccnc12` [Example 58, Ethyl 2-methyl-7-(3-{[3-(trifluoromethyl)benzoyl]amino}phenyl)pyrazolo[1,5-a]pyrimidine-3-carboxylate] the same measures were 4% and greater than 10000 nM.
On to `CCCNC(=O)c1cnn2c(-c3cccc(NC(=O)c4cccc(C(F)(F)F)c4)c3)ccnc12` [Example 46, N-propyl-7-(3-{[3-(trifluoromethyl)benzoyl]amino}phenyl)pyrazolo[1,5-a]pyrimidine-3-carboxamide], for which the inhibition at 10 µM stood at 54%.
As for `CCOC(=O)c1cnn2c(-c3cccc(NC(=O)c4cc(Cl)ccc4Br)c3)ccnc12` [Example 228, ethyl7-{3-[(2-bromo-5-chlorobenzoyl)amino]phenyl}pyrazolo[1,5-a]pyrimidine-3-carboxylate], the inhibition at 10 µM is 7%. In addition, the IC50 under setting [1] was greater than 10000 nM.
For `CCOC(=O)c1cnn2c(-c3cccc(NC(=O)Nc4ccc(C#N)cc4)c3)ccnc12` [Example 38, ethyl 7-[3-({[(4-cyanophenyl)amino]carbonyl}amino)phenyl]pyrazolo[1,5-a]pyrimidine-3-carboxylate] the same measures were 20% and greater than 10000 nM.
Regarding `Cc1cnc2c(-c3cccnc3)cnn2c1-c1cccc(NC(=O)c2cccc(C(F)(F)F)c2)c1` [Example 179, N-[3-(6-methyl-3-pyridin-3-ylpyrazolo[1,5-a]pyrimidin-7-yl)phenyl]-3-(trifluoromethyl)benzamide], the IC50 amounted to 650 nM and the inhibition at 10 µM was found to be 90%.
Regarding `CCOC(=O)c1cnn2c(-c3cccc(NC(=O)c4ccc(Br)s4)c3)ccnc12` [Example 223, ethyl7-(3-{[(5-bromo-2-thienyl)carbonyl]amino}phenyl)pyrazolo[1,5-a]pyrimidine-3-carboxylate], the inhibition at 10 µM is 47%. Under setting [1], the IC50 is greater than 10000 nM.
Turning to `N#Cc1cnn2c(-c3cccc(NC(=O)c4cccc(C(F)(F)F)c4)c3)ccnc12` [Example 63, N-[3-(3-cyanopyrazolo[1,5-a]pyrimidin-7-yl)phenyl]-3-(trifluoromethyl)benzamide], under setting [1], the IC50 is greater than 10000 nM. Also, the inhibition at 10 µM (single point assay, 10 uM) came to 14%.
As for `Cc1ccc(C(=O)Nc2cccc(-c3ccnc4c(Br)cnn34)c2)cc1C(F)(F)F` [Example 161, N-[3-(3-bromopyrazolo[1,5-a]pyrimidin-7-yl)phenyl]-4-methyl-3-(trifluoromethyl)benzamide], it took 670 nM to reach half-maximal inhibition (IC50) and the inhibition at 10 µM turned out to be 87%.
On to `CCOC(=O)c1cnn2c(-c3cccc(NC(=O)Cc4cccc(C)c4)c3)ccnc12` [Example 98, ethyl 7-(3-{[(3-methylphenyl)acetyl]amino}phenyl)pyrazolo[1,5-a]pyrimidine-3-carboxylate], for which the inhibition at 10 µM was determined as 15%. Besides, the IC50 under setting [1] is greater than 10000 nM.
As for `O=C(Nc1cccc(-c2ccnc3cc(N4CCOCC4)nn23)c1)Nc1ccc(Cl)c(Cl)c1` [Example 201, N-(3,4-dichlorophenyl)-N′-[3-(2-morpholin-4-ylpyrazolo[1,5-a]pyrimidin-7-yl)phenyl]urea], the inhibition at 10 µM worked out at 96%. The IC50 under setting [1] worked out at 100 nM.
For `COc1ccc(C(=O)Nc2cccc(-c3ccnc4c(-c5ccncc5)cnn34)c2)cc1C(F)(F)F` [Example 189, 4-methoxy-N-[3-(3-pyridin-4-ylpyrazolo[1,5-a]pyrimidin-7-yl)phenyl]-3-(trifluoromethyl)benzamide], inhibition was half-maximal at 360 nM (IC50) and the inhibition at 10 µM stood at 83%.
Take `O=C(Nc1cccc(-c2ccnc3cc(N4CCOCC4)nn23)c1)c1ccc(F)c(C(F)(F)F)c1` [Example 196, 4-fluoro-N-[3-(2-morpholin-4-ylpyrazolo[1,5-a]pyrimidin-7-yl)phenyl]-3-(trifluoromethyl)benzamide]: the inhibition at 10 µM amounted to 96%. The IC50 under setting [1] is 90 nM.
As to `CCN(CC)CCNC(=O)c1cnn2c(-c3cccc(NC(=O)Nc4ccc(Cl)c(C(F)(F)F)c4)c3)ccnc12` [Example 122, 7-{3-[({[4-chloro-3-(trifluoromethyl)phenyl]amino}carbonyl)amino]phenyl}-N-[2-(diethylamino)ethyl]pyrazolo[1,5-a]pyrimidine-3-carboxamide], the IC50 is 140 nM and the inhibition at 10 µM is 83%.
As to `Cc1ccc(C(=O)Nc2cccc(-c3ccnc4cc(N5CCOCC5)nn34)c2)cc1C(F)(F)F` [Example 194, 4-methyl-N-[3-(2-morpholin-4-ylpyrazolo[1,5-a]pyrimidin-7-yl)phenyl]-3-(trifluoromethyl)benzamide], the inhibition at 10 µM stood at 96%. Also, the IC50 under setting [1] came to 110 nM.
On to `Cc1ccc(-c2cnn3c(-c4cccc(NC(=O)c5cccc(C(F)(F)F)c5)c4)ccnc23)cc1` [Example 160, N-{3-[3-(4-methylphenyl)pyrazolo[1,5-a]pyrimidin-7-yl]phenyl}-3-(trifluoromethyl)benzamide], for which the inhibition at 10 µM stood at 51%.
As to `Cc1ccc(C(=O)Nc2cccc(-c3ccnc4c(-c5ccncc5)cnn34)c2)cc1C(F)(F)F` [Example 188, 4-methyl-N-[3-(3-pyridin-4-ylpyrazolo[1,5-a]pyrimidin-7-yl)phenyl]-3-(trifluoromethyl)benzamide], 300 nM corresponded to half-maximal inhibition (IC50) and the inhibition at 10 µM is 86%.
Take `O=C(Nc1cccc(-c2ccnc3c(C(=O)NCc4ccccc4)cnn23)c1)c1cccc(C(F)(F)F)c1` [Example 57, N-benzyl-7-(3-{[3-(trifluoromethyl)benzoyl]amino}phenyl)pyrazolo[1,5-a]pyrimidine-3-carboxamide]: the inhibition at 10 µM is 51%. Under setting [1], the IC50 came out at 1640 nM.
For `Cc1ccc(C(=O)Nc2cccc(-c3ccnc4cc(-c5ccc(Cl)cc5)nn34)c2)cc1C(F)(F)F` [Example 118, N-{3-[2-(4-chlorophenyl)pyrazolo[1,5-a]pyrimidin-7-yl]phenyl}-4-methyl-3-(trifluoromethyl)benzamide] the same measures were 22% and greater than 10000 nM.
